Experimental findings from patent US6514911B1, “Substituted oxadiazines useful as pesticides” (Uniroyal Chemical Company, Inc., priority 2002, dated 2003) are described below.

Test [1] has as its system green foxtail (Setaria virdis (L.) Beauv.) (GF). The test is described as follows: Preemergence herbicide test, soil drench, green foxtail. The settings on record: Setaria, 336 h, 10 lbs/A (11.2 kg/ha) soil drench, two weeks after treatment, vs untreated checks, read-out: Percent Weed Control GF. The format is in vivo. Put shortly:
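Compound in acetone/water with ethoxylated sorbitan monolaurate emulsifier, applied as 250 ppm soil drench at 10 lb/acre (11.2 kg/ha) to pots sown with green foxtail seed. Percent weed control versus untreated checks rated two weeks after treatment.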

Test [2] has as its system tall morningglory (Ipomoea purpurea (L.) Roth) (TM). Kind of test: Preemergence herbicide test, soil drench, tall morningglory. The format is in vivo. As to conditions: Ipomoea, 336 h, 10 lbs/A (11.2 kg/ha) soil drench, two weeks after treatment, vs untreated checks, read-out: Percent Weed Control TM. Put shortly:
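Acetone/emulsifier formulation diluted to 250 ppm and drenched onto soil surface of seeded pots at 10 lb/acre (11.2 kg/ha), preemergence. Percent weed control versus untreated checks scored two weeks after treatment.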

Test [3] concerns barnyardgrass (Echinochloa crus-galli (L.) Beauv.) (BG). The test is described as follows: Preemergence herbicide test, soil drench, barnyardgrass. The format is in vivo. As to conditions: Echinochloa crus-galli, 336 h, 10 lbs/A (11.2 kg/ha) soil drench, two weeks after treatment, vs untreated checks, read-out: Percent Weed Control BG. Put shortly:
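Compound formulated in acetone with ethoxylated sorbitan monolaurate, diluted to 250 ppm and drenched onto soil surface of seeded pots at 10 pounds/acre (11.2 kg/ha), preemergence. Percent weed control versus untreated checks scored two weeks after treatment.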

Test [4] relates to switchgrass (Panicum virgahim L.) (SG). Kind of test: Preemergence herbicide test, soil drench, switchgrass. Type of test: in vivo. As to conditions: Panicum, 336 h, 10 lbs/A (11.2 kg/ha) soil drench, two weeks after treatment, vs untreated checks, read-out: Percent Weed Control SG. In short, it runs like this: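 Preemergence soil drench at 10 pounds/acre (11.2 kg/ha), 46 mL of 250 ppm aqueous solution (acetone, ethoxylated sorbitan monolaurate) applied to pots sown with switchgrass seed. Percent weed control versus untreated checks scored two weeks after treatment.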

The next test concerns insects. Kind of test: Insecticidal properties (no method given). As to conditions: statement in words, no test details.
In test [5] the test system is velvetleaf (Abutilon theophrasti Medik.) (VL). The test is described as follows: Preemergence herbicide test, soil drench, velvetleaf. The format is in vivo. The settings on record: Abutilon theophrasti, 336 h, 10 lbs/A (11.2 kg/ha) soil drench, two weeks after treatment, vs untreated checks, read-out: Percent Weed Control VL. Put shortly: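 Compound in acetone/ethoxylated sorbitan monolaurate, diluted to 250 ppm in water, was drenched onto the soil surface of pots sown with velvetleaf at 10 lb/acre (11.2 kg/ha). Percent control versus untreated checks was rated two weeks after treatment.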

For test [6], the system named is jimsonweed (Datura stramonium L.) (JW). Kind of test: Preemergence herbicide test, soil drench, jimsonweed. The format is in vivo. As to conditions: 10 lbs/A (11.2 kg/ha) soil drench, two weeks after treatment, vs untreated checks. The method, then: To illustrate the effectiveness of the previously described substituted oxadiazines of this invention as preemergence herbicides, 300 mg of the chemical was dissolved in a composition comprising 10 mL acetone to which 30 mg of tile emulsifying agent, ethoxylated sorbitan monolaurate, was added. The solution was diluted to 100 mL with distilled water. Ten milliliters of this 3000 ppm solution was diluted to 250 ppm with distilled water. The chemical was applied at the rate of 10 pounds/acre (11.2 kg/ha) by drenchings 46 mL of the 250 ppm solution on the surface of soil in 4½ inch (11.25 cm) plastic pots wherein seeds of the following weeds had been planted: jimsonweed (Datura stramonium L.) (JW), The percent control of the weeds compared to untreated checks was determined two weeks after treatment. TABLE 1 summarizes the results achieved with compounds formulated as indicated above, and the data clearly indicate the good to excellent herbicidal efficacy of compositions of this invention.

With `FC(F)(F)C(F)(F)C(F)(F)C1=NC(C(F)(F)F)(C(F)(F)F)N=C(c2cccc(Cl)c2)O1` [Compound 26, 2-(3-chlorophenyl)-6-(heptafluoropropyl)-4,4-bis(trifluoromethyl)-4H-1,3,5-oxadiazine], the pest or weed control at 11208.5 g/ha in test [1], in test [2], in test [3], in test [4] and in test [5] was 100% each time. Further, the insecticidal properties result in the test with insects is on record as “found to have insecticidal properties”. The “Percent Weed Control JW” value in test [6] is given as 100%.
